From patent US20030017158A1, “Method for detecting and killing epithelial cancer cells” (priority 2002, published 2003) come the findings set out here.

The test system of assay [1] is living oral carcinoma cells (SqCHN). In words: Selective toxicity, cell killing of carcinoma cells over 8 days. In kind it is cell-based. The settings on record: for selective toxicity towards carcinoma cells: carcinoma cells compared to normal oral epithelial cells; for cell death of carcinoma cells: incubated with dye fraction, washed, observed over 8 days. As for the experimental part: (§1) The compounds represented by peaks 5, 6, 7 and 8, obtained during the fractionation of the toluidine blue O, are analyzed for their selective toxicity towards living oral carcinoma cells (SqCHN) compared to living normal oral epithelial cells. Separate cultures of squamous carcinoma cells and normal epithelial cells are incubated with the different dye fractions and then washed with dye-free medium. The cells are then re-incubated in growth medium and observed over a period of 8 days to determine the extent of cell killing. The compound of peak 6 results in 95% cell death of carcinoma cells, compared to only about 20% killing of normal cells.

For assay [2], the system named is living normal oral epithelial cells. Briefly: Selective toxicity, cell killing of normal cells over 8 days. It counts as cell-based. To be noted: incubated with dye fraction, washed, observed over 8 days. On the procedure: as §1
The subject of assay [3] is other squamous carcinomas, adenocarcinomas, lymphomas and sarcomas. Briefly: Further in-vitro tests with other isolates of carcinoma cells and normal epithelial cells. It counts as cell-based. The settings on record: conducted in the manner of Example 8. On the procedure: (§2) The therapeutic characteristics of the compounds of peaks 6 and 8 are determined by further in-vitro tests, conducted in the manner of Example 8, using other isolates of carcinoma cells and normal epithelial cells. The testing profile includes other squamous carcinomas of the head and neck, esophagus, lung, cervix and skin, as well as other types of cancers, including adenocarcinomas, lymphomas and sarcomas. In-vivo “delay of tumor growth” and “tumor regression assay” tests using tumor-bearing animals, including head and neck and lung carcinomas implanted in Balb-C mice, are made to analyze the in-vivo therapeutic benefit of these compounds.

Assay [4] concerns head and neck and lung carcinomas implanted in Balb-C mice. Briefly: In-vivo delay of tumor growth and tumor regression assay. The settings on record: tumor-bearing Balb-C mice. On the procedure: as §2
For another assay, the system named is carcinoma cells. Briefly: Uptake and retention of mitochondrial marking agents in living carcinoma cells. It counts as cell-based. To be noted: 5 minute incubation, rinsed twice with 1% acetic acid, 2-butanol extraction, spectrophotometry. On the procedure: Different concentrations of the various cationic marking agents, at 100, 50, 10 and 1 μg/ml are prepared in RPMI medium complete with 20% fetal calf serum, 1 mM glutamine, hydrocortisone, insulin, transferrin, estradiol, selenium and growth hormone.
The carcinoma cells are incubated at 37EC in tissue culture incubators with 5% CO2 and 95% relative humidity, for 5 minutes with each agent and concentration there and then rinsed twice using 2 minute incubations with 1% acetic acid. After incubation and rinsing, the cells are harvested, at 30 min., 1 hour, 2 hours, 4 hours and 8 hours. The cells are then extracted with 2-butanol and analyzed by spectrophotometry for quantitation of the marking agent.

Some results are limits rather than exact numbers.

In the case of `Cc1cc2nc3ccc(N(C)C)cc3[s+]c2cc1N` [peak 8], in assay [1], the “selective toxicity towards carcinoma cells” value is “selectively toxic towards carcinoma cells” and the “cell death of carcinoma cells” value is reported as 89%. Also, the “killing of normal cells” value in assay [2] is listed as “about 20%”. Further, the “selective toxicity to the wider variety of cancer cell types, in vitro” value in assay [3] is reported as “confirm the selective toxicity”. Moreover, in assay [4], the “selective toxicity, in-vivo therapeutic benefit” value was “confirm the selective toxicity”.
In the case of `Cc1cc2nc3ccc(N(C)C)cc3[s+]c2cc1N.[Cl-]` [toluidine blue O], the saturation concentration in the assay on carcinoma cells was no less than 10 µg/mL.
In the case of `CNc1ccc2nc3ccc(N)c(C)c3[s+]c2c1` [peak 5], the “selective toxicity towards carcinoma cells” value in assay [1] is recorded as “do not exhibit the same selective toxicity”.
With `Cc1c(N)ccc2nc3ccc(N(C)C)cc3[s+]c12` [peak 7], the “selective toxicity towards carcinoma cells” value in assay [1] was “do not exhibit the same selective toxicity”.
`CNc1ccc2nc3cc(C)c(N)cc3[s+]c2c1` [peak 6]: in assay [1], the “selective toxicity towards carcinoma cells” value is “selectively toxic towards carcinoma cells” and the “cell death of carcinoma cells” value came to 95%. Further, the “killing of normal cells” value in assay [2] is given as “about 20%”. The “selective toxicity to the wider variety of cancer cell types, in vitro” value in assay [3] is “confirm the selective toxicity”. Also, in assay [4], the “selective toxicity, in-vivo therapeutic benefit” value is listed as “confirm the selective toxicity”.
